{"source": "patent US10729710B2", "about": "“Catecholamine prodrugs for use in the treatment of Parkinson's disease” (H. Lundbeck A/S, priority 2017, dated 2020)", "key": {"[1]": {"assay": "PK experiments in rats: plasma compound (I) after oral dosing of prodrugs", "type": "in vivo, Han Wistar rats", "conditions": "Wistar rats, FIG. 2, doses equal to 287 μg/kg of compound (I)", "method": "Plasma was placed on water-ice following collection. Final storage at approximately −70° C.\nMobile phase B: Acetonitrile. […] Flow rate 0.5 mL/min.\nThe rats had unrestricted access to the diet.\nMobile phase B: Acetonitrile+0.2% formic acid. […] Flow rate 0.3 mL/min.\nHan Wistar rats were supplied by Envigo, UK. […] The rats received a standard laboratory diet Teklad 2014C. The rats had unrestricted access to the diet."}, "male CD rats": {"tested_on": "male CD rats", "assay": "Rat locomotor activity (hyperactivity) assay, open field", "type": "in vivo", "method": "In total, 206 male CD rats (Charles River, Germany) weighing 200-250 grams (165-190 grams upon arrival) were used in the study. Animals were housed at a standard temperature (22±1° C.) and in a light-controlled environment (lights on from 7 am to […]) with ad libitum access to food and water. The experiment described below was performed in accordance with the standard operating procedures of Charles River Discovery Research Services Finland Ltd. and in accordance with the national Animal Experiment Board of Finland (Eläinkoelautakunta, ELLA) authority on animal testing.\nThe test device is a square Plexiglass-arena (measuring 40×40×40 cm), in which the movement paths of the rats are recorded by an activity monitor (Med. Associates Inc.). Before the test period is initiated, rats are habituated to their test cage for 60 minutes. Upon completion of habituation, animals were treated with either compound or vehicle and placed back into the open field apparatus. The main test parameter measured is ambulatory distance (recorded in 5 minute segments). Overall time of measurement after receiving initial treatment was 360 minutes. Total follow up period in the study was 420 min, including 60 min of habituation."}, "hepatocytes from human": {"tested_on": "hepatocytes from human", "assay": "Conversion to compound (I) in human hepatocytes", "type": "in vitro ADME", "conditions": "1 μg/mL, 37° C., 0.25-60 minutes, FIG. 7b", "method": "The cell concentration at incubation was 1×10^6 viable cells/mL. The incubations were performed in glass tubes at 37° C. with a total incubation volume of 3.5 mL and with duplicate incubations for each test item. The 3.5 mL of hepatocyte suspension was equilibrated for 10 minutes in a water bath set to 37° C. where after the incubations were initiated by adding 3.5 μL of a stock solution of the test item in DMSO (Dimethyl sulfoxide) and gently inverting the tubes. The final solvent concentration in the incubations was 0.1% DMSO. Samples of 600 μL were withdrawn from the incubations at the pre-determined time points of 0.25, 5, 15, 30 and 60 minutes after ensuring homogeneity of hepatocyte suspensions. The withdrawn volume was added to 1 mL Nunc cryo tubes on wet ice containing 60 μL of ice cold ascorbic acid (100 mg/mL) and 30 μL of ice cold 100 mM saccharic acid 1.4-lactone in 0.5 M citric acid. The tubes were mixed and 35 μL of a solution of ice cold 20% formic acid was added. The tubes were mixed thoroughly and stored at −80° C. awaiting analysis. Analysis method and Instrumentation used for analysis of (I) from dosing (Id-ia), (Id-ib), (Id-iia) and (Id-iib), were the one described in Examples 4 and 5 below in the section “Instrumentation used for analysis of compound (I) from dosing of compounds (Ic), (Id-ia), (Id-ib), (Id-iia), (Id-iib), (Id-iab) and (Id-iiab).”\nAnalysis method and Instrumentation used for analysis of (I) from dosing (Id-iab) and (Id-iiab) consisted of mixing equal aliquots of the samples and precipitation solution (acetonitrile (MeCN) with 10% methanol (MeOH) and 1% formic acid), followed by centrifugation at 4° C. at 16000 g for 10 minutes. Supernatants were collected and analysed by LC-MS/MS. Mass spectrometer: Waters Acquity—Waters Xevo TQ-MS. Analytical column: Acquity UPLC HSS T3, 100×2.1 mm, 1.8 μm. Mobile phase A: 0.2% formic acid in water. Mobile phase B: 0.2% formic acid in acetonitrile. Gradient run from 95/5% to 60/40 in 5 min. Flow rate 0.3 mL/min. MRM monitoring of (I) in the study samples and in the analytical standards."}, "[2]": {"assay": "Conversion to compound (I) in fresh rat blood", "type": "in vitro ADME", "conditions": "fresh blood 37° C., 1 μg/mL, 0-60 minutes, FIG. 8a", "method": "(§1) Conversion of (Id-ia), (Id-ib), (Id-iia) and (Id-iib) in human blood (average of 3 donors) and rat blood (average of 45 donors) to (I) was shown in fresh blood at 37° C. spiked with 1 μg/mL of (Id-ia), (Id-ib), (Id-iia) and (Id-iib) separately, (I) was measured at 0, 5, 15, 30 and 60 minutes in isolated plasma. Analysis method and Instrumentation as described in Examples 4 and 5 below in the section “Instrumentation used for analysis of compound (I) from dosing of compounds (Ic), (Id-ia), (Id-ib), (Id-iia), (Id-iib), (Id-iab) and (Id-iiab).”"}, "[3]": {"assay": "Conversion to compound (I) in fresh human blood", "type": "in vitro ADME", "conditions": "fresh blood 37° C., 1 μg/mL, 0-60 minutes, FIG. 8b", "method": "as §1"}}, "note": "Where a name gives a salt, the structure may show the parent alone."}
{"smiles": "CCCN1CCC[C@@H]2Cc3c(ccc(O)c3O[C@@H]3O[C@H](C(=O)O)[C@@H](O)[C@H](O)[C@H]3O)C[C@H]21", "note": "[(Id-ia), (2S,3S,4S,5R,6S)-3,4,5-trihydroxy-6-(((4aR,10aR)-7-hydroxy-1-propyl-1,2,3,4,4a,5,10,10a-octahydrobenzo[g]quinolin-6-yl)oxy)tetrahydro-2H-pyran-2-carboxylic acid]", "values": [{"measurement": "plasma profile of compound (I) after oral dosing (in words)", "setting": "[1]", "value": "slower absorption rate avoiding rapid peak concentrations accompanied by a sustained exposure of compound (I) in plasma"}, {"measurement": "relationship between behavioral effect and plasma concentrations", "setting": "male CD rats; (Id-ia) 100 μg/kg p.o. (FIG. 5), apomorphine 3 mg/kg s.c. (FIG. 6)", "value": "correlate with the plasma concentrations of compound (I)"}, {"measurement": "start of locomotor activity effect post-administration", "setting": "male CD rats; (Id-ia) 10 to 300 μg/kg p.o., apomorphine 3 mg/kg s.c., pramipexole 0.3 mg/kg s.c.", "value": "~2", "unit": "h"}, {"measurement": "total distance travelled vs vehicle", "setting": "male CD rats; FIG. 4, (Id-ia) p.o., apomorphine 3 mg/kg s.c., pramipexole 0.3 mg/kg s.c.", "value": "significantly increased activity"}, {"measurement": "time until locomotor effect is gone", "setting": "male CD rats; apomorphine: post administration, pramipexole: after appearance of effect, (Id-ia): recording ended at 415-minute time point", "value": "lasting until the end of recording"}, {"measurement": "conversion to compound (I) in human hepatocytes", "setting": "hepatocytes from human", "value": "time dependent conversion to compound (I)"}, {"measurement": "conversion to compound (I) in rat blood", "setting": "[2]", "value": "time dependent conversion to compound (I)"}, {"measurement": "conversion to compound (I) in human blood", "setting": "[3]", "value": "time dependent conversion to compound (I)"}]}
{"smiles": "CCCN1CCC[C@@H]2Cc3c(ccc(O)c3OS(=O)(=O)O)C[C@H]21", "note": "[(Id-iia), (4aR,10aR)-7-hydroxy-1-propyl-1,2,3,4,4a,5,10,10a-octahydrobenzo[g]quinolin-6-yl hydrogen sulfate]", "values": [{"measurement": "plasma profile of compound (I) after oral dosing (in words)", "setting": "[1]", "value": "slower absorption rate avoiding rapid peak concentrations accompanied by a sustained exposure of compound (I) in plasma"}, {"measurement": "conversion to compound (I) in human hepatocytes", "setting": "hepatocytes from human", "value": "time dependent conversion to compound (I)"}, {"measurement": "conversion to compound (I) in rat blood", "setting": "[2]", "value": "time dependent conversion to compound (I)"}, {"measurement": "conversion to compound (I) in human blood", "setting": "[3]", "value": "time dependent conversion to compound (I)"}]}
